# Patent publication US20180273503A1, “NOVEL ANGIOTENSIN CONVERTING ENZYME INHIBITOR” (RIKEN, priority 2015, published 2018)
# Molecular target: T1, angiotensin converting enzyme (ACE) (Homo sapiens, UniProt P12821)
# T1 construct: purchased Dojindo Laboratories A502
# Assay: ACE inhibitory activity assay (ACE Kit-WST, A502, Dojindo Laboratories)
# Assay type: biochemical
# Conditions: for IC50: 3HB-GGG substrate, absorbance 450 nm, N.D. = ACE inhibitory activity was not detected in the test, read-out: IC50 concerning ACE activity
# Text: ACE inhibitory activity can be quantitatively evaluated with the use of, for example, a commercially available kit for ACE inhibitory activity assay. […] For example, ACE inhibitory activity of a target sample (e.g., a compound) can be evaluated with the use of a commercially available kit for ACE inhibitory activity assay (ACE Kit-WST, A502, Dojindo Laboratories) in the manner described below. In principle, such kit enzymatically detects 3-hydroxybutyric acid (3HB) cleaved from 3-hydroxybutyryl-glycyl-glycyl-glycine (3HB-GGG) by ACE activity. In accordance with the instructions of the kit, a sample solution containing a test compound at a given concentration is prepared in a reaction vessel, and a control solution is prepared with the addition of the same volume of water instead of the sample solution in another reaction vessel. An enzyme reaction solution is added to each reaction vessel, and the reaction is then allowed to proceed, respectively. As a blank sample, a solution prepared with the addition of the same volume of water instead of the enzyme solution is subjected to the same treatment. The absorbance (450 nm) of the chromogenic indicator used in the enzymatic method generated together with 3HB cleaved from 3HB-GGG by ACE activity is measured. On the basis of the values measured for the sample, the control sample, and the blank sample, ACE inhibitory activity of each sample is determined using the formula shown below. Alternatively, ACE inhibitory activity of the target sample can be evaluated in the manner described below. A substrate peptide that is a mimic of a C-terminal region of angiotensin I (e.g., hippuryl-histidyl-leucine (HHL)) and a sample are mixed with each other in an appropriate buffer solution. ACE is added to the resulting mixture and an enzymatic reaction is performed under appropriate conditions (e.g., 37° C. and pH 8.3) for a given period of time. After the enzymatic reaction is terminated, a product generated from the substrate peptide (e.g., hippuric acid in the case of HHL) is quantitatively measured via analytical means, such as absorbance measurement, immunoanalysis such as ELISA or RIA, or chromatography analysis such as HPLC or LC-MS. A sample-free control and an ACE-free blank are subjected to the same experiment. On the basis of the values measured for the sample, the control sample, and the blank sample, ACE inhibitory activity of each sample is determined using the formula shown below. […]
# In principle, such kit enzymatically detects 3-hydroxybutyric acid (3HB) cleaved from 3-hydroxybutyryl-glycyl-glycyl-glycine (3HB-GGG) by ACE activity. […] The absorbance (450 nm) of the chromogenic indicator used in the enzymatic method generated together with 3HB cleaved from 3HB-GGG by ACE activity was measured.
# T1 sequence (P12821 30-1306, species assumed): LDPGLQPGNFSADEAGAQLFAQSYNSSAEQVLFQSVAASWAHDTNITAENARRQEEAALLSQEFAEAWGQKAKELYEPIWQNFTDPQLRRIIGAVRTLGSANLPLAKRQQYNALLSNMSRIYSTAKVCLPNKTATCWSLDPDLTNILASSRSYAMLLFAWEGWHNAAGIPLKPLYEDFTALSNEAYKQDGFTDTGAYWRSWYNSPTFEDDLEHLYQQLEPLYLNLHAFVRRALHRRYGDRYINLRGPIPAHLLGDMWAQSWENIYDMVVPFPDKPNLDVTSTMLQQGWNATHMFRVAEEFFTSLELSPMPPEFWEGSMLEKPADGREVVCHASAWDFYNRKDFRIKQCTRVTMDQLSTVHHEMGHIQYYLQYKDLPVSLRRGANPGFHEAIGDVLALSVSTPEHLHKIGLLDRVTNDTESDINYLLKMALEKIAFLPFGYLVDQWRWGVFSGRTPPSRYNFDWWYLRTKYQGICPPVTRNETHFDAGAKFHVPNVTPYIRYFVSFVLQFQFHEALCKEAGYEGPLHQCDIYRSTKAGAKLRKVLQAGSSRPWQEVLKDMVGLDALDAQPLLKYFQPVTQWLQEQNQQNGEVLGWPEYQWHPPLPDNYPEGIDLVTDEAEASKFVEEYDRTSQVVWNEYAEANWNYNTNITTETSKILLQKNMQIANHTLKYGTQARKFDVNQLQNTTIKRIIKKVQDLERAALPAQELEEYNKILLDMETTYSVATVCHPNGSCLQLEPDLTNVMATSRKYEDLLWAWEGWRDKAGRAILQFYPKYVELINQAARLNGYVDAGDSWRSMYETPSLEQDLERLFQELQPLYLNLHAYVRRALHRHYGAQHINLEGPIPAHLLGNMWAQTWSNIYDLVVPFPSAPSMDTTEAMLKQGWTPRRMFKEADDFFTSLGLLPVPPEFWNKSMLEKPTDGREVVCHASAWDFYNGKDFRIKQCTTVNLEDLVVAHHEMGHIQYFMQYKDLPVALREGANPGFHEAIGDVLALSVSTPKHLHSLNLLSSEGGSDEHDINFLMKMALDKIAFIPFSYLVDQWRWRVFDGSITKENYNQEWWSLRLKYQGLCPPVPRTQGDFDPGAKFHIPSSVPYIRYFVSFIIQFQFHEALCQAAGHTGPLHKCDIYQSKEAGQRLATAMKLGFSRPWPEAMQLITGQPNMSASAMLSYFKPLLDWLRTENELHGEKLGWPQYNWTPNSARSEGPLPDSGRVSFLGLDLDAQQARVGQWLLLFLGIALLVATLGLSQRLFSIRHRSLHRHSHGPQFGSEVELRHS
IC50 [µM],concentration at which ACE inhibitory activity is exerted (from the dose-response data),SMILES
113,exceeding 1 μM,"N=C(N)NCCC[C@H](NC(=O)C1CSSC1)C(=O)O [Asparaptine, asparaptine]"
14.5 ± 5.3,,"O=C(O)CCC(=O)N1CCC[C@H]1C(=O)O [N-Succinyl-L-proline, N-succinyl-L-proline]"
18.7 ± 0.54,,"N[C@@H](CCN[C@@H](CCN1CC[C@H]1C(=O)O)C(=O)O)C(=O)O [Nicotianamine, nicotianamine]"
